Measured values published in the NIST ThermoML archive (doi:10.1016/j.jct.2004.07.025).
Values joined by “and” are separate entries in the source; they are usually repeats but may differ in a detail not shown here. Equal entries are not always repeated. Numbers after ± are expanded uncertainties.

Details: Liquid

CCOC(=O)c1ccccc1C(=O)OCC [diethyl phthalate]
Details | vapor or sublimation pressure
303.19 K, Calculated from knudsen effusion weight loss | 0.000165 ± 1e-05 kPa
307.62 K, Calculated from knudsen effusion weight loss | 0.00026 ± 1.6e-05 kPa
308.1 K, Calculated from knudsen effusion weight loss | 0.000271 ± 1.7e-05 kPa
313.34 K, Calculated from knudsen effusion weight loss | 0.000456 ± 2.8e-05 kPa
318.54 K, Calculated from knudsen effusion weight loss | 0.000769 ± 4.7e-05 kPa
323.04 K, Calculated from knudsen effusion weight loss | 0.00116 ± 0.0001 kPa
323.33 K, Calculated from knudsen effusion weight loss | 0.001179 ± 0.00011 kPa
328.33 K, Calculated from knudsen effusion weight loss | 0.001842 ± 0.00017 kPa
333.55 K, Calculated from knudsen effusion weight loss | 0.002839 ± 0.00028 kPa
333.58 K, Calculated from knudsen effusion weight loss | 0.002895 ± 0.00029 kPa
333.68 K, Calculated from knudsen effusion weight loss | 0.00286 ± 0.00029 kPa
335.05 K, Closed cell (Static) method | 0.0037 ± 0.00019 kPa
335.07 K, Closed cell (Static) method | 0.0037 ± 0.00019 kPa
337.65 K, Calculated from knudsen effusion weight loss | 0.003873 ± 0.0004 kPa
338.68 K, Calculated from knudsen effusion weight loss | 0.004379 ± 0.00046 kPa
343.7 K, Calculated from knudsen effusion weight loss | 0.006569 ± 0.00073 kPa
344.41 K, Closed cell (Static) method | 0.0076 ± 0.00033 kPa
344.43 K, Closed cell (Static) method | 0.0077 ± 0.00034 kPa
354.01 K, Closed cell (Static) method | 0.0158 ± 0.0006 kPa
354.03 K, Closed cell (Static) method | 0.0159 ± 0.0006 kPa
363.15 K, Closed cell (Static) method | 0.0304 ± 0.0009 kPa
363.16 K, Closed cell (Static) method | 0.0305 ± 0.0009 kPa
365.75 K, Closed cell (Static) method | 0.036 ± 0.0011 kPa and 0.0359 ± 0.0011 kPa
365.77 K, Closed cell (Static) method | 0.0363 ± 0.0011 kPa
375.29 K, Closed cell (Static) method | 0.0671 ± 0.0018 kPa
375.31 K, Closed cell (Static) method | 0.0671 ± 0.0018 kPa
384.96 K, Closed cell (Static) method | 0.121 ± 0.003 kPa
394.42 K, Closed cell (Static) method | 0.21 ± 0.005 kPa and 0.209 ± 0.005 kPa and 0.207 ± 0.005 kPa
394.43 K, Closed cell (Static) method | 0.208 ± 0.005 kPa
394.47 K, Closed cell (Static) method | 0.207 ± 0.005 kPa
403.73 K, Closed cell (Static) method | 0.346 ± 0.008 kPa
403.77 K, Closed cell (Static) method | 0.347 ± 0.008 kPa
404.25 K, Closed cell (Static) method | 0.352 ± 0.008 kPa
404.27 K, Closed cell (Static) method | 0.352 ± 0.008 kPa
413.4 K, Closed cell (Static) method | 0.568 ± 0.012 kPa
413.43 K, Closed cell (Static) method | 0.569 ± 0.012 kPa
414.26 K, Closed cell (Static) method | 0.585 ± 0.013 kPa
414.27 K, Closed cell (Static) method | 0.586 ± 0.013 kPa
424.06 K, Closed cell (Static) method | 0.94 ± 0.02 kPa
424.09 K, Closed cell (Static) method | 0.94 ± 0.02 kPa
479.25 K, Ebulliometric method (Recirculating still) | 8.318 ± 0.012 kPa
487.77 K, Ebulliometric method (Recirculating still) | 11.06 ± 0.014 kPa
494.93 K, Ebulliometric method (Recirculating still) | 13.9 ± 0.017 kPa
501 K, Ebulliometric method (Recirculating still) | 16.77 ± 0.019 kPa
507.32 K, Ebulliometric method (Recirculating still) | 20.26 ± 0.023 kPa
513.93 K, Ebulliometric method (Recirculating still) | 24.53 ± 0.027 kPa
520.32 K, Ebulliometric method (Recirculating still) | 29.35 ± 0.032 kPa
